Assay results reported in patent US20220117945A1, “ISOXAZOLE CARBOXAMIDE COMPOUNDS AND USES THEREOF” (NOVARTIS AG, priority 2017, published 2022).

Columns and labels:
[1] = tested on: Atoh1 expression in mouse cerebellar neural precursor cells; assay: Atoh1 induction assay in mouse cerebellar neural precursor cells (NPCs), Atoh1-GFP reporter; assay type: cell-based; settings: 10 doses 50 μM to 200 nM, 72 hours treatment, DMSO control = 1, more than 5 considered significant, read-out: fold difference (maximum fold difference of GFP average intensity in cell nuclei over the DMSO control)
Description: (§1) Compounds of the present disclosure were assessed for their ability to increase the Atoh1 expression in mouse cerebellar neural precursor cells. The ability of compounds of the present disclosure to induce new hair cell formation was assessed in ex vivo hair cell induction assay using 6-day-postnatal mouse cochlea explants with hair cell damage.
Atoh1 Induction Assay in Mouse Cerebellar Neural Precursor Cells (NPCs)
Atoh1 induction assay was conducted with in vitro cultured cerebellar neural precursor cells isolated from neonatal transgenic Atoh1-GFP mice. Atoh1 expression is mainly regulated by the enhancer, and the nuclear GFP was driven by the cloned enhancer sequence at 3′ of Atoh1 which had high conservation among mammalians. So Atoh1 induction could be reflected by GFP activation in cerebellar neural precursor cells (Helms et al., Development 2000; 127: 1185-1196; Lumpkin et al., Gene Expression Patterns 2003; 3: 389-395). Postnatal 3 days pups were dissected for cerebellum tissue isolation. The cerebellum tissue was cut into small pieces, and dissociated with 0.05% Trypsin for about 10 minutes at 37° C., and then filtered with a 70 uM cell strainer. The cells were cultured as neuropsheres for the first 2 days in ultra-low attachment dish/well-plate with DMEM/F12+1% N2 &2% B27 with 1% P/S, 20 ng/ml rhFGF2 and 20 ng/ml rhEGF (R&D Systems). Then the spheres were plated to the matrigel (1:30 diluted in DMEM/F12)-coated tissue culture dish for monolayer culture. After 4.5-5.5 days culture in vitro (DIV), cells were dissociated with 0.05% trypsin into single cells, and frozen after cell number calculation.
The cerebellar neural precursor cells (NPCs) were re-thawed from stock and cultured for another 2 days before used for Atoh1 induction assay. On the first day of assay, NPCs were seeded into matrigel-coated 384 well plates (Black view-plate, PE) at 2500 cells/well. After over-night culture, the NPCs were treated with representative compounds of the present disclosure with 1:2 serial dilutions for 10 doses, from 50 μM to 200 nM, with DMSO as negative control. After 72 hours treatment without medium change, the cells were fixed with 4% formalin for staining. Assay plates were stained with GFP antibody (Abcam, #13970, 1:1000) to amplify endogenous GFP signal and then read by Cellomics.

[2] = tested on: 6-day-postnatal mouse cochlea explants with hair cell damage; assay: Ex vivo hair cell induction assay using 6-day-postnatal mouse cochlea explants with hair cell damage; assay type: cell-based; settings: P6 Atoh1-GFP mouse cochlea explants, neomycin-damaged; 3 to 10 μM compound for 8 days, then 4 days blank medium; mean ± SD; DMSO = 0%; more than 20% considered significant
Description: as §1
Ex Vivo Hair Cell Induction Assay Using 6-Day-Postnatal Mouse Cochlea Explants with Hair Cell Damage
P6, postnatal 6 days, Atoh1-GFP mice, the same mouse strain used for Atoh1 induction assay described before, were used in this assay. The otic capsule was exposed and the cochleae were micro-dissected. […] and in vitro cultured in serum free medium (culture medium: DMEM/F12+1% N2+2% B27+5 μg/ml ampicillin) at 37° C. under a standard gas atmosphere of humidified air/5% CO2. Inner ear hair cells were damaged by 1 mM Neomycin treatment for 1.25 h. After the neomycin treatment, explants were cultured in blank culture medium for 7 days before the treatment of selected compounds.
For compound administration, the cochlea explants were treated with 3 to 10 μM compound of the present disclosure, with DMSO as the negative control for 8 days with once compound/medium change. After 8 days treatment, the tested compound was removed. The explants were cultured in blank medium for additional 4 days. The cochlea explant cultures then were fixed with 4% w/v formalin and processed for Myo7a immunofluorescence (Myo7a is a specific marker for sensory hair cell) using the rabbit anti-Myo7a antibody (Protus Biosci #25-6790, 1:250 diluted in PBS containing 3% BSA). Rhodamine labeled Goat-anti-rabbit IgG (Molecular Prob. #R6394, 1:1000 diluted in PBS containing 3% BSA) was used as the secondary antibody to visualize the Myo7a positive cells. The images were collected and analyzed using the EVOS image system (Thermo-Fisher Scientific). […] The hair cell identity of the ectopically formed cells was confirmed by staining the cells with multiple hair cell markers.
The efficacy of hair cells induction in this assay is represented by the responsive length percentage of Atoh1 and Myo7a double positive cells in the damaged whole explants after compound treatment. The responsive length percentage was calculated according to the equation of ((the explant length with Atoh1 and Myo7a double positive cells/the full length of cochlea explant)*100%). Note the value of DMSO control is 0% due to total damage of hair cells, and any responsive length percentage more than 20% is considered as significant hair cell induction.

Structure (SMILES) | maximal fold induction [1] | Responsive length % (explant length with Atoh1 and Myo7a double positive cells / full length of cochlea explant) [2] [%]
COC(=O)NC1CN(CCCCCNC(=O)c2cc(-c3cccs3)on2)C1 [Example 17, Methyl (1-(5-(5-(thiophen-2-yl)isoxazole-3-carboxamido)pentyl)azetidin-3-yl)carbamate] | 34.6 | 52.9 ± 6.8
NC(=O)C1CN(CCCCCNC(=O)c2cc(-c3cccs3)on2)C1 [Example 27, N-(5-(3-Carbamoylazetidin-1-yl)pentyl)-5-(thiophen-2-yl)isoxazole-3-carboxamide] | 33.7 | 66.0 ± 2.4
O=C(NCCCCCN1CC[C@H](F)C1)c1cc(-c2cccs2)on1 [Example 45, (S)—N-(5-(3-fluoropyrrolidin-1-yl)pentyl)-5-(thiophen-2-yl)isoxazole-3-carboxamide] | 24 | 51.9 ± 14.9
O=C(NCCCCCN1CC2CCC(C1)N2)c1cc(-c2cccs2)on1 [Example 11, N-(5-(3,8-Diazabicyclo[3.2.1]octan-3-yl)pentyl)-5-(thiophen-2-yl)isoxazole-3-carboxamide] | 12.4 | 51.7 ± 8.1
CN1C2CCC1CN(CCCCCNC(=O)c1cc(-c3cccs3)on1)C2 [Example 12, N-(5-(8-Methyl-3,8-diazabicyclo[3.2.1]octan-3-yl)pentyl)-5-(thiophen-2-yl)isoxazole-3-carboxamide] | 21.1 | 39.7 ± 8.2
CC1CN(CCCCCNC(=O)c2cc(-c3cccs3)on2)CC(C)N1C (centres unmarked) [Example 15, 5-(Thiophen-2-yl)-N-(5-(3,4,5-trimethylpiperazin-1-yl)pentyl)isoxazole-3-carboxamide] | 15.3 | 50.1 ± 9.9
N#CCC1CN(CCCCCNC(=O)c2cc(-c3ccc(F)cc3)on2)C1 [Example 66] | 25.1 | 61.5 ± 6.0
CN1CCN(CCCCCNC(=O)c2cc(-c3ccc(F)cc3)on2)CC1 [Example 10, 5-(4-Fluorophenyl)-N-(5-(4-methylpiperazin-1-yl)pentyl)isoxazole-3-carboxamide] | 17.6 | 59.1 ± 9.1
O=C(NCCCCCN1CC(O)C1)c1cc(-c2cccs2)on1 [Example 48] | 37.5 | 75.8 ± 4.5
O=C(NCCCCCN1CC(F)C1)c1cc(-c2cccs2)on1 [Example 59] | 29.1 | 54.1 ± 5.8
CN1CCN(CCCCCNC(=O)c2cc(-c3cccs3)on2)CC1 [Example 8, N-(5-(4-Methylpiperazin-1-yl)pentyl)-5-(thiophen-2-yl)isoxazole-3-carboxamide] | 30.9 | 54.0 ± 6.3
N#CC1CCN(CCCCCNC(=O)c2cc(-c3cccs3)on2)CC1 [Example 56] | 36.9 | 26.5 ± 9.4
NC(=O)C1CN(CCCCCNC(=O)c2cc(-c3ccc(F)cc3)on2)C1 [Example 65, N-(5-(3-carbamoylazetidin-1-yl)pentyl)-5-(4-fluorophenyl)isoxazole-3-carboxamide] | 29.8 | 43.1 ± 7.6
CN1CC2CCC1CN2CCCCCNC(=O)c1cc(-c2cccs2)on1 (centres unmarked) [Example 52, N-(5-(5-methyl-2,5-diazabicyclo[2.2.2]octan-2-yl)pentyl)-5-(thiophen-2-yl)isoxazole-3-carboxamide] | 26.7 | 28.2 ± 11.9
O=C(NCCCCCN1CCN(CCO)CC1)c1cc(-c2cccs2)on1 [Example 54, N-(5-(4-(2-hydroxyethyl)piperazin-1-yl)pentyl)-5-(thiophen-2-yl)isoxazole-3-carboxamide] | 27.8 | 35.6 ± 11.8
O=C(NCCCCCN1CC[C@H](O)C1)c1cc(-c2cccs2)on1 [Example 36] | 15.7 | 28.1 ± 6.3
O=C(NCCCCCN1CC2CCC(C1)O2)c1cc(-c2cccs2)on1 [Example 51, N-(5-(8-oxa-3-azabicyclo[3.2.1]octan-3-yl)pentyl)-5-(thiophen-2-yl)isoxazole-3-carboxamide] | 9.9 | 48.6 ± 3.0
COC1CN(CCCCCNC(=O)c2cc(-c3cccs3)on2)C1 [Example 47] | 27.8 | 64.4 ± 17.2
C[C@@H]1CN(CCCCCNC(=O)c2cc(-c3cccs3)on2)C[C@H](C)O1 [Example 42] | 23.7 | 28.8 ± 8.3
